Source: patent publication US10626108B2, “Heterocyclic indoles for use in influenza virus infection” (Janssen Sciences Ireland UC, priority 2015, dated 2020)

Tests used:
in vitro = details: dog
[1] = system: influenza virus A/Taiwan/1/86 (H1N1); assay: organism not typed; format: cell-based; details: 72 h; MDCK cells infected with influenza A/Taiwan/1/86 (H1N1), MOI 0.001 or 0.01; CPE via ATP levels three days post-virus exposure

| SMILES | CC50 at 3 days (in vitro) | IC50 [1] |
| --- | --- | --- |
| Cc1nc(-c2c[nH]c3c(F)cc(F)cc23)nc(N[C@H]2CCC[C@@H](NC(=O)c3cnn[nH]3)C2)c1F [Compound 15] | 3400 nM | 0.2 nM |
| Cc1nc(-c2c[nH]c3c(F)cc(F)cc23)nc(N[C@H]2CCC[C@@H](NC(=O)c3csc(C(=O)O)n3)C2)c1F [Compound 29] | 21000 nM | 2 nM |
| O=C(N[C@H]1CCC[C@@H](Nc2cnnc(-c3c[nH]c4c(F)cc(F)cc34)n2)C1)N1CCCC1 [Compound 28] | 15500 nM | 8 nM |
| Cc1nc(-c2c[nH]c3ncncc23)nc(N[C@@H]2CCC[C@H](NC(=O)c3ccccn3)C2)c1F [Compound 21] | > 25000 nM | 1 nM |
| Cc1nc(-c2c[nH]c3c(F)cc(F)cc23)nc(N[C@H]2CCC[C@@H](NC(=O)c3cn(C)cn3)C2)c1F [Compound 13] | 10400 nM | 1 nM |
| O=C(N[C@H]1CCC[C@@H](Nc2cncc(-c3c[nH]c4c(F)cc(F)cc34)n2)C1)N1CCCC1 [Compound 25] | 9700 nM | 26 nM |
| O=C(O)[C@H]1C2CCC(CC2)[C@@H]1Nc1cnnc(-c2c[nH]c3c(F)cc(F)cc23)n1 (racemic) [Compound 6] | > 5000 nM | 130 nM |
| O=C(N[C@H]1CCC[C@@H](Nc2nc(-c3c[nH]c4c(F)cc(F)cc34)nc(C(=O)O)c2F)C1)c1cnn[nH]1 [Compound 36] | > 25000 nM | 7 nM |
| Cc1nc(-c2c[nH]c3c(F)cc(F)cc23)nc(N[C@H]2CCC[C@@H](NC(=O)c3cnn(C)c3)C2)c1F [Compound 14] | > 25000 nM | 2 nM |
